Values quoted from earlier work, collected in patent publication US10300042B2, “Apremilast for the treatment of a liver disease or a liver function abnormality” (Celgene Corporation, priority 2014, dated 2019).

Test system: alanine aminotransferase and/or aspartate aminotransferase
Settings: animal models and human studies; cited from earlier work

CC(=O)CCCCn1c(=O)c2c(ncn2C)n(C)c1=O [Pentoxifylline]
Liver Function Tests abnormalities (ALT, AST levels): decreasing levels of alanine aminotransferase and/or aspartate aminotransferase
